Laboratory results taken from the NIST ThermoML archive (doi:10.1016/j.jct.2018.09.029).
± gives the expanded uncertainty stated by the source.

Experiment: Boiling temperature at pressure P
Details: 82.6 kPa; Liquid; Ebulliometric method (Recirculating still)

O [water]
Boiling temperature at pressure P: 94.41 ± 0.63 °C
